Laboratory results taken from patent US11208412B2 (DAEGU-GYEONGBUK MEDICAL INNOVATION FOUNDATION, priority 2017, dated 2021).

What was measured:
Assay in all cases: Kinase selectivity, DiscoverX scanMAX Kinase assay panel (% control)
Format in all cases: binding
[1] = molecular target: T1, kinases of the scanMAX Kinase assay panel (Homo sapiens, UniProt O14733); conditions: MKK7; 1 uM
T1 construct: purchased DiscoverX Co. (contract measurement) scanMAX Kinase assay panel
T1 sequence (O14733 1-419): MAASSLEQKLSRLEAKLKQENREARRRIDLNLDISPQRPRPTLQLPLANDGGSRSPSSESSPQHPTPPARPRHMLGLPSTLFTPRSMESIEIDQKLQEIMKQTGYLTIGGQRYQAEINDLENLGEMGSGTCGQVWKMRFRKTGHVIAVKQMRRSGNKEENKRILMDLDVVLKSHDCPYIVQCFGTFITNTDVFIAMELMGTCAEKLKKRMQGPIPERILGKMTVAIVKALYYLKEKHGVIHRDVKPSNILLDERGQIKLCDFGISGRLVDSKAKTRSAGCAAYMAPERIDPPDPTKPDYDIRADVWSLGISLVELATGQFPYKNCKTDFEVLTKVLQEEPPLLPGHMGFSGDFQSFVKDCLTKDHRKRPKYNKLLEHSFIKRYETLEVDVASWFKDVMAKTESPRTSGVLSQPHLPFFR
How it was run: (§1)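 Single-point screen, 1 uM cpd in DMSO. % ctrl = (cpd − pos ctrl)/(neg ctrl − pos ctrl)×100; pos ctrl = 0%, DMSO neg ctrl = 100%. Hit cutoff <35%.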

[2] = molecular target: T2, kinases of the scanMAX Kinase assay panel (Homo sapiens, UniProt O15530); conditions: PDPK1; 1 uM
T2 construct: purchased DiscoverX Co. (contract measurement) scanMAX Kinase assay panel
T2 sequence (O15530 1-556): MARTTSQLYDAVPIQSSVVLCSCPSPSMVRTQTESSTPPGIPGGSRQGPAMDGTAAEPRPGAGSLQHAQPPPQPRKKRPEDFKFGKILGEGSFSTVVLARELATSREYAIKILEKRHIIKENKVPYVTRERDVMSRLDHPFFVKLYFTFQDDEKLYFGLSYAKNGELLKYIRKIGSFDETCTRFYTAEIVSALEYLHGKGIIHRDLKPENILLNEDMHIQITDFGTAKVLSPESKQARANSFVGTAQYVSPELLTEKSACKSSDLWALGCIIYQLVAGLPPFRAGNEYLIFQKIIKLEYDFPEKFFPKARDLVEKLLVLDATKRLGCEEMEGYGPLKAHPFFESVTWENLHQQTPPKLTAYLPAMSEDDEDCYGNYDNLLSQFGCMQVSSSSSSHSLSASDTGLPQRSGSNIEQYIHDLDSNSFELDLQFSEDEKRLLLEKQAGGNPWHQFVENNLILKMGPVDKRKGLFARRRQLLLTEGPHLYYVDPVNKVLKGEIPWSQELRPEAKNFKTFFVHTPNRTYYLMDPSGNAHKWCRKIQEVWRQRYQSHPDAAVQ
How it was run: as §1

[3] = molecular target: T3, kinases of the scanMAX Kinase assay panel (Homo sapiens, UniProt O43683); conditions: BUB1; 1 uM
T3 construct: purchased DiscoverX Co. (contract measurement) scanMAX Kinase assay panel
How it was run: as §1

[4] = molecular target: T4, kinases of the scanMAX Kinase assay panel (Homo sapiens, UniProt P08581, Y1235D); conditions: MET(Y1235D); 1 uM
T4 construct: purchased DiscoverX Co. (contract measurement) scanMAX Kinase assay panel
How it was run: as §1

[5] = molecular target: T5, kinases of the scanMAX Kinase assay panel (Homo sapiens, UniProt P11362); conditions: FGFR1; 1 uM
T5 construct: purchased DiscoverX Co. (contract measurement) scanMAX Kinase assay panel
T5 sequence (P11362 22-822): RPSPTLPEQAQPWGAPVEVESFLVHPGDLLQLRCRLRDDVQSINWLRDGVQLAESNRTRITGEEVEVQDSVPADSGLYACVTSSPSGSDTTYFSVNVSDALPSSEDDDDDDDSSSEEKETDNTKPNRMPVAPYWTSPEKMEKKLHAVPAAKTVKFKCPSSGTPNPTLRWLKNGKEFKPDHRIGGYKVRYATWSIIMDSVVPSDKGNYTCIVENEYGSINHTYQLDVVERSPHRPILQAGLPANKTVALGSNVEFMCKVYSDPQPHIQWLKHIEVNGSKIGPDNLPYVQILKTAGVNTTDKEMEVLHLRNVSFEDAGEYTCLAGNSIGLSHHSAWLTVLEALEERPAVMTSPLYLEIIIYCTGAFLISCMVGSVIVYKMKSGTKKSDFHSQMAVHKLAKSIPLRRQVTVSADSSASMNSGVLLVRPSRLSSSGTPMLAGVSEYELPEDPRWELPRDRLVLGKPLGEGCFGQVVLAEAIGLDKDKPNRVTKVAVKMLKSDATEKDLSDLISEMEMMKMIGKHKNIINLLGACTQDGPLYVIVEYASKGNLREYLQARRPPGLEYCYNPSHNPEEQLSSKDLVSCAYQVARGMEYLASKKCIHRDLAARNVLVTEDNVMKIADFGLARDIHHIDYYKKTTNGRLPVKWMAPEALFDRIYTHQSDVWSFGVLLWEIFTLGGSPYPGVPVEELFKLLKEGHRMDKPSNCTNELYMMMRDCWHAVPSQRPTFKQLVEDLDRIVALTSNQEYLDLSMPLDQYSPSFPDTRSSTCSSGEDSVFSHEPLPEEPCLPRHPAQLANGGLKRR
How it was run: as §1

[6] = molecular target: T6, kinases of the scanMAX Kinase assay panel (Homo sapiens, UniProt P12931); conditions: kinase SRC; 1 uM in DMSO
T6 construct: purchased DiscoverX Co. (contract measurement) scanMAX Kinase assay panel
How it was run: as §1

[7] = molecular target: T7, kinases of the scanMAX Kinase assay panel (Homo sapiens, UniProt P19525); conditions: PRKR; 1 uM
T7 construct: purchased DiscoverX Co. (contract measurement) scanMAX Kinase assay panel
How it was run: as §1

[8] = molecular target: T8, kinases of the scanMAX Kinase assay panel (Homo sapiens, UniProt P45984); conditions: JNK2; 1 uM
T8 construct: purchased DiscoverX Co. (contract measurement) scanMAX Kinase assay panel
T8 sequence (P45984 whole entry): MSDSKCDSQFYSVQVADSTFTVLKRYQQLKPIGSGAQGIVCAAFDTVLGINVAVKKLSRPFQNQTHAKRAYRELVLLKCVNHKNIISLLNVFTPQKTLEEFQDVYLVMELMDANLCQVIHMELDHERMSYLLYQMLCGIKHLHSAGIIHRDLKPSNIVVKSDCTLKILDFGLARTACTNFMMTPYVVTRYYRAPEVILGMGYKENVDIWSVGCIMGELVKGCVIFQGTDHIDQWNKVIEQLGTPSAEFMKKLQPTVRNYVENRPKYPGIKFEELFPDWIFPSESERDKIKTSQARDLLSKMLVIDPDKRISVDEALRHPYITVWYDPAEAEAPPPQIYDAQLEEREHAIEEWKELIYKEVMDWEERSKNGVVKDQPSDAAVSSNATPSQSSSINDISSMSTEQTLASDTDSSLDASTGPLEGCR
How it was run: as §1

[9] = molecular target: T9, kinases of the scanMAX Kinase assay panel (Homo sapiens, UniProt P48729); conditions: CSNK1A1; 1 uM
T9 construct: purchased DiscoverX Co. (contract measurement) scanMAX Kinase assay panel
T9 sequence (P48729 whole entry): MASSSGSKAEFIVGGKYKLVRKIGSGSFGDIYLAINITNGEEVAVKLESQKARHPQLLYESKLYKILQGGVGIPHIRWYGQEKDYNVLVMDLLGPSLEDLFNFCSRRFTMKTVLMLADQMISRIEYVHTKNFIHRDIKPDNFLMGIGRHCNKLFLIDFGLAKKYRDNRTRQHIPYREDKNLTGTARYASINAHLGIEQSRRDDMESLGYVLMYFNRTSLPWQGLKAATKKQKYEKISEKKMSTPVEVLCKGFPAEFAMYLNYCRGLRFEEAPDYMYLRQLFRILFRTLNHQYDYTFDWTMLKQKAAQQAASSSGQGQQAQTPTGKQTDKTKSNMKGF
How it was run: as §1

[10] = molecular target: T10, kinases of the scanMAX Kinase assay panel (Homo sapiens, UniProt P51956); conditions: NEK3; 1 uM
T10 construct: purchased DiscoverX Co. (contract measurement) scanMAX Kinase assay panel
T10 sequence (P51956 1-506): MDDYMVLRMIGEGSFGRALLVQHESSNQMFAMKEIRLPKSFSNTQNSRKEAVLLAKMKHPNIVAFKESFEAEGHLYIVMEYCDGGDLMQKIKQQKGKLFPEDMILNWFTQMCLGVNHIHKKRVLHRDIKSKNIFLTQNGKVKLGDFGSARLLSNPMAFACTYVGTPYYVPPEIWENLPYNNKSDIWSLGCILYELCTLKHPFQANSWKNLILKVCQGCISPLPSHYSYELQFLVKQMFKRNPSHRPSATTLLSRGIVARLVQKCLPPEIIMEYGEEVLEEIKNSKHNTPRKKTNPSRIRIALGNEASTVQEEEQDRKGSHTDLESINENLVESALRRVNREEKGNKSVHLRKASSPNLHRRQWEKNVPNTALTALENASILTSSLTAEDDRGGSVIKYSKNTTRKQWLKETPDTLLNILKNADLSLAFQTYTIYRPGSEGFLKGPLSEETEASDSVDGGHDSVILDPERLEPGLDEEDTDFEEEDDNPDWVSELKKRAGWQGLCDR
How it was run: as §1

[11] = molecular target: T11, kinases of the scanMAX Kinase assay panel (Homo sapiens, UniProt P51957); conditions: NEK4; 1 uM
T11 construct: purchased DiscoverX Co. (contract measurement) scanMAX Kinase assay panel
How it was run: as §1

[12] = molecular target: T12, kinases of the scanMAX Kinase assay panel (Homo sapiens, UniProt Q6DT37); conditions: DMPK2; 1 uM
T12 construct: purchased DiscoverX Co. (contract measurement) scanMAX Kinase assay panel
How it was run: as §1

[13] = molecular target: T13, kinases of the scanMAX Kinase assay panel (Homo sapiens, UniProt Q8IU85); conditions: CAMK1D; 1 uM
T13 construct: purchased DiscoverX Co. (contract measurement) scanMAX Kinase assay panel
How it was run: as §1

[14] = molecular target: T14, kinases of the scanMAX Kinase assay panel (Homo sapiens, UniProt Q9H4A3); conditions: kinase WNK1; 1 uM in DMSO
T14 construct: purchased DiscoverX Co. (contract measurement) scanMAX Kinase assay panel
T14 sequence (Q9H4A3 whole entry): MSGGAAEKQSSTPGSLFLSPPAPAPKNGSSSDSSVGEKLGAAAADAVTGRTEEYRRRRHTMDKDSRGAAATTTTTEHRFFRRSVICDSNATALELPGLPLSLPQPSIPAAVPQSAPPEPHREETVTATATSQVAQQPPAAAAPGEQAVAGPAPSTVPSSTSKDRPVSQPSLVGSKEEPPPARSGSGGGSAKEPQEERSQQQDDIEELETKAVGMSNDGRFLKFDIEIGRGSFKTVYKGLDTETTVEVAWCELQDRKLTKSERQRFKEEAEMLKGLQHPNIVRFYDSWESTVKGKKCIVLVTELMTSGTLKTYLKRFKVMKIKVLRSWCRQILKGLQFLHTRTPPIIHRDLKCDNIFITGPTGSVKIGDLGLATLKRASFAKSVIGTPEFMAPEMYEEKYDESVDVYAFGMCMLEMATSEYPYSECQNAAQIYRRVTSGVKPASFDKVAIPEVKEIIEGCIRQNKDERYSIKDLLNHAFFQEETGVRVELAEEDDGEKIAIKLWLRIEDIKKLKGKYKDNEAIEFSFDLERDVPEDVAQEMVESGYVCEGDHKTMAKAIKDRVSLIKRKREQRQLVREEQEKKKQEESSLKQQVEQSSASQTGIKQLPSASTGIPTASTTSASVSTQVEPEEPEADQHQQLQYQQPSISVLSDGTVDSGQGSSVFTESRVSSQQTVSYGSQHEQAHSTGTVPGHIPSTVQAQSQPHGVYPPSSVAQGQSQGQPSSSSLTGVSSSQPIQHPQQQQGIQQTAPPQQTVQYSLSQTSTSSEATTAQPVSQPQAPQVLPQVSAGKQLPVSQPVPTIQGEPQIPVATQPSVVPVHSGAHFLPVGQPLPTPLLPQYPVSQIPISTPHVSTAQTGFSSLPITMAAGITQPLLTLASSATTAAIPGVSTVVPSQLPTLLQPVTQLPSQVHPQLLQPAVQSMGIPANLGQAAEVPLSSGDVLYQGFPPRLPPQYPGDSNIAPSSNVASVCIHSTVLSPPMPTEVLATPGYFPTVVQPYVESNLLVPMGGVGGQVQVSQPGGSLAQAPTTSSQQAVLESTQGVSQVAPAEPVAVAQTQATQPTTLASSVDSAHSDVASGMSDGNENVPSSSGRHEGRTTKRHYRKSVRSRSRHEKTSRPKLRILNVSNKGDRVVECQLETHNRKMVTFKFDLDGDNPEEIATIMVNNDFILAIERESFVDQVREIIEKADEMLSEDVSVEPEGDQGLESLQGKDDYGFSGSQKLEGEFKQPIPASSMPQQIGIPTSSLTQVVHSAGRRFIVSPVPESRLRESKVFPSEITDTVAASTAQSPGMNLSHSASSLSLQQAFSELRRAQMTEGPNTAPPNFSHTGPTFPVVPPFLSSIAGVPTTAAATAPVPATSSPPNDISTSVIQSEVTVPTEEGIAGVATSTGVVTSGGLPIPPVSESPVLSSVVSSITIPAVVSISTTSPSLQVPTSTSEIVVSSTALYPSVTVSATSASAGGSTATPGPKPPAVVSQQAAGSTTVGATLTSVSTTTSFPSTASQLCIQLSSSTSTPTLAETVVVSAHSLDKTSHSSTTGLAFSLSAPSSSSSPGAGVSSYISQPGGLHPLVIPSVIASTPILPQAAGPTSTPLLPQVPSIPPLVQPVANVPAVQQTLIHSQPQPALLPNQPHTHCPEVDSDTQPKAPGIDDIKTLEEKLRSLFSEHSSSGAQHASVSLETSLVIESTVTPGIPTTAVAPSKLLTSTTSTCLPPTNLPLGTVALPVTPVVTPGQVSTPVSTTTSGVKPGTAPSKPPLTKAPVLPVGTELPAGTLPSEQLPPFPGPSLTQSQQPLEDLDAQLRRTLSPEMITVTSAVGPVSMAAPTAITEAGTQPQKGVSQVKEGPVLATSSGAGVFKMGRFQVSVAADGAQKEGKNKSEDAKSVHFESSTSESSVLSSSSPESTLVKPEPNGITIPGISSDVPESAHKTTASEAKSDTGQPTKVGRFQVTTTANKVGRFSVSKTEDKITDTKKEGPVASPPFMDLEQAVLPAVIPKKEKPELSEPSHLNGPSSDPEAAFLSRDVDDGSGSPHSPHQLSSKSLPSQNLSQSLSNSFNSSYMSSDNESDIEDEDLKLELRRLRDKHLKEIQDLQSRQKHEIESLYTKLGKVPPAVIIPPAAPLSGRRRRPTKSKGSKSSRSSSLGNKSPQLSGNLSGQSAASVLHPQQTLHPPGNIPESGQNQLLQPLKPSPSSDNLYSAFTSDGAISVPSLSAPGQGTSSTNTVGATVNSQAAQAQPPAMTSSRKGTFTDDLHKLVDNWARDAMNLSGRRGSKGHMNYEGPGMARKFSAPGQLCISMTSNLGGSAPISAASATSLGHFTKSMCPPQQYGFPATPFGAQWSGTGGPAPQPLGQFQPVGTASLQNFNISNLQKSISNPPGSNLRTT
How it was run: as §1

[15] = molecular target: T15, kinases of the scanMAX Kinase assay panel (Homo sapiens, UniProt Q9UBF8); conditions: PIK4CB; 1 uM
T15 construct: purchased DiscoverX Co. (contract measurement) scanMAX Kinase assay panel
T15 sequence (Q9UBF8 whole entry): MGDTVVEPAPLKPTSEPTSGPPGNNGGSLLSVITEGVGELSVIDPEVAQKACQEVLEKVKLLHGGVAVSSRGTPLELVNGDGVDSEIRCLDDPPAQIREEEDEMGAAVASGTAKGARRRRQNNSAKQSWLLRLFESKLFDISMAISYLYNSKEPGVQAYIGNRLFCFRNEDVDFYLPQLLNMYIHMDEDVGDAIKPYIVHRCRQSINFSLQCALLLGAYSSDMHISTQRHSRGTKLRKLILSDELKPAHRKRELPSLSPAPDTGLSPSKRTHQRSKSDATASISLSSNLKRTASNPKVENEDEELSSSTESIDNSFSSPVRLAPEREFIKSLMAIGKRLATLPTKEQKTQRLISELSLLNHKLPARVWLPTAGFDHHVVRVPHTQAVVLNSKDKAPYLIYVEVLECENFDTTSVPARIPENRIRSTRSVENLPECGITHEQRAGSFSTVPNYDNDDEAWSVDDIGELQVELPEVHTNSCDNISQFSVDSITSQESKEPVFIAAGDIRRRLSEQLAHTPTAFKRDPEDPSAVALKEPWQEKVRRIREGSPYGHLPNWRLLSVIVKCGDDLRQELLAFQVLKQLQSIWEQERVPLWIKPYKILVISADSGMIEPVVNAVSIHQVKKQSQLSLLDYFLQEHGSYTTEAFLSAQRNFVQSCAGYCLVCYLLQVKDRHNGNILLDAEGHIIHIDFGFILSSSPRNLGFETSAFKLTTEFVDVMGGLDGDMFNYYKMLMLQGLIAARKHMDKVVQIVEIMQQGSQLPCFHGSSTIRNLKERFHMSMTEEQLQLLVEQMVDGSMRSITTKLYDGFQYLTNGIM
How it was run: as §1

Compound	remaining binding at 1 µM [1] [%]	remaining binding at 1 µM [2] [%]	remaining binding at 1 µM [3] [%]	remaining binding at 1 µM [4] [%]	remaining binding at 1 µM [5] [%]	remaining binding at 1 µM [6] [%]	remaining binding at 1 µM [7] [%]	remaining binding at 1 µM [8] [%]	remaining binding at 1 µM [9] [%]	remaining binding at 1 µM [10] [%]	remaining binding at 1 µM [11] [%]	remaining binding at 1 µM [12] [%]	remaining binding at 1 µM [13] [%]	remaining binding at 1 µM [14] [%]	remaining binding at 1 µM [15] [%]
CCNc1nc(Nc2ccc(C(=O)N3CCC(N4CCOCC4)CC3)cc2OC)nc2[nH]cc(C(F)(F)F)c12 [Example 104, (4-((4-(ethylamino)-5-(trifluoromethyl)-7H-pyrrolo[2,3-d]pyrimidine-2-yl)amino)-3-methoxyphenyl)(4-morpholinopiperidine-1-yl)methanone]	100	100	95	100	100	100	85	23	56	82	100	100	66	100	99
CC1(Nc2nc(Nc3cnn([C@H]4CCN(C5COC5)C[C@@H]4F)c3Cl)nc3[nH]cc(C#N)c23)CC1 [Example 52, 2-((5-chloro-1-((3S,4S)-3-fluoro-1-(oxetane-3-yl)piperidine-4-yl)-1H-pyrazole-4-yl)amino)((1-methylcyclopropyl)amino)-7H-pyrrolo[2,3-d]pyrimidine-5-carbonitrile]	6.1	70	0.2	31	42	4.6	42	0	1.6	96	100	81	14	99	60
CNc1nc(Nc2ccc(C(=O)N3CCOCC3)cc2OC)nc2[nH]cc(C#N)c12 [Example 1, 2-((2-methoxy-4-(morpholine-4-carbonyl)phenyl)amino)-4-(methylamino)-7H-pyrrolo[2,3-d]pyrimidine-5-carbonitrile]	48	81	36	82	97	90	95	0.1	19	70	75	90	50	70	61
